Numbers after ± are expanded uncertainties.
Legend:
[1] = xn = mol fraction of the nth substance listed; settings: 100 kPa, Liquid; for thermal conductivity: transient hot wire
[2] = 100 kPa, Liquid; for thermal conductivity: transient hot wire

CCOP(=O)([O-])OCC.CCn1cc[n+](C)c1 [1-ethyl-3-methylimidazolium diethyl phosphate] + O
[1]
Settings | mass density, x1 = 0.2 [kg/m3] | mass density, x1 = 0.4 [kg/m3] | mass density, x1 = 0.6 [kg/m3] | mass density, x1 = 0.8 [kg/m3] | mass density, x1 = 1 [kg/m3] | thermal conductivity, x1 = 0.2 [W/m/K] | thermal conductivity, x1 = 0.4 [W/m/K] | thermal conductivity, x1 = 0.6 [W/m/K] | thermal conductivity, x1 = 0.8 [W/m/K] | thermal conductivity, x1 = 1 [W/m/K]
303.15 K | 1133.7 ± 10 | 1137.4 ± 10 | 1139.3 ± 10 | 1143.2 ± 10 | 1144.9 ± 10 | – | – | – | – | –
313.15 K | 1126 ± 10 | 1131.3 ± 10 | 1133.3 ± 10 | 1137.2 ± 10 | 1139.2 ± 10 | 0.2341 ± 0.0094 | 0.1964 ± 0.0079 | 0.1849 ± 0.0074 | 0.1783 ± 0.0072 | 0.1745 ± 0.0071
333.15 K | 1112.4 ± 10 | 1118.3 ± 10 | 1121.1 ± 10 | 1124.4 ± 10 | 1127.2 ± 10 | – | – | – | – | –
353.15 K | 1098.8 ± 10 | 1105.7 ± 10 | 1108.9 ± 10 | 1118 ± 10 | 1115.2 ± 10 | – | – | – | – | –

O [water]
[2]
Settings | thermal conductivity [W/m/K]
302.39 K | 0.6187 ± 0.025
314.31 K | 0.6334 ± 0.025
333.54 K | 0.656 ± 0.026
353.53 K | 0.67 ± 0.027

CCOP(=O)([O-])OCC.CCn1cc[n+](C)c1 [1-ethyl-3-methylimidazolium diethyl phosphate]
[2]
Settings | mass density [kg/m3] | thermal conductivity [W/m/K]
303.15 K | 1144.9 ± 10 | –
313.15 K | 1139.2 ± 10 | 0.1745 ± 0.0071
333.15 K | 1127.2 ± 10 | –
353.15 K | 1115.2 ± 10 | –
